Data on 2 compounds can be found in article PMC11992208, “Structural basis for the prolonged photocycle of sensory rhodopsin II revealed by serial synchrotron crystallography” (Nature Communications, 2025).

In this assay the target is T1, sensory rhodopsin II (NpSRII) (Natronomonas pharaonis, UniProt P42196).
T1 construct: gene sop2; His-tagged, expressed in E. coli BL21star from pET27a, Ni-NTA and size exclusion; crystallised in LCP
T1 sequence (P42196 1-239): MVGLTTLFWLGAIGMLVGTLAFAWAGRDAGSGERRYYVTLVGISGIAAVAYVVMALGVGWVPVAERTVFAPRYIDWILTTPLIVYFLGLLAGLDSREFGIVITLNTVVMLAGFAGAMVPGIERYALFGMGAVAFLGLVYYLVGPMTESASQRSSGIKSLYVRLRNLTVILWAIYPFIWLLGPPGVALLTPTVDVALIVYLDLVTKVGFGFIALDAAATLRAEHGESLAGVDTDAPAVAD
As to the kind of experiment: serial synchrotron X-ray crystallography. Type of assay: binding. The note with it: covalent, room temperature.

`CC1=C(/C=C/C(C)=C/C=C/C(C)=C\C=O)C(C)(C)CCC1` [13-cis retinal]: where the note is “Lys205, photoisomerized in situ from all-trans retinal, M-state at partial occupancy, continuous 488 nm illumination”, the “serial synchrotron X-ray crystallography” value is reported as “the population of the M-state was given a 13-cis retinal”.
As for `CC1=C(/C=C/C(C)=C/C=C/C(C)=C/C=O)C(C)(C)CCC1` [all-trans retinal], the “serial synchrotron X-ray crystallography” value (protonated Schiff base to Lys205, dark resting state, LCP microcrystals) is “the resting and O-state populations were refined with an all-trans retinal”.
